For one series, the system named is pLai RLuc reporter virus. The series can be described thus: microbe, parasite or virus in culture. It is filed as cell-based, HIV. The essentials: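 Read-out is Renilla luciferase after 72 h at 37 °C in MT-4 cells infected 2 h beforehand with pLai RLuc reporter virus; compounds diluted 1:3.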
The next series has as its system uninfected MT-4 cells. The series can be described thus: Cytotoxicity assay in MT-4 cells. It is filed as cell-based, human. The conditions noted are these: uninfected MT-4 cells, 5 days incubation. The essentials:
(§1)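 For cytotoxicity, uninfected MT-4 cells were incubated with compounds 5 days at 37 °C, with 10 μM puromycin marking base cytotoxicity. Parallel plates used HIV-1 IIIB-infected (1:250 stock dilution) or mock cells with 5 μM AZT and no-drug controls. Read-out: CellTiter-Glo chemiluminescence.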

Series [1] can be described thus: Cytotoxicity assay in MT-4 cells. The series is classed as cell-based, human. The conditions noted are these: human, uninfected MT-4 cells, 5 days incubation; read-out: CC50. Summed up:
as §1

The next series deals with HIV-1 (IIIB). The series can be described thus: Antiviral assay in MT-4 cells (HIV MT-4 antiviral assay). The series is classed as cell-based. The conditions noted are these: HIV-1 (IIIB) in MT-4 cells, 5 days incubation. Summed up: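 Read-out is CellTiter-Glo chemiluminescence after 5-day culture at 37° C, giving protection of MT-4 cells from HIV-1 IIIB cytopathicity. Compounds tested in 1:3 dilution series in complete RPMI; controls were no drug, mock infection and 5 μM AZT.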

[2] abbreviates: Human immunodeficiency virus 1, 72 h, read-out: Antiviral Serum Shift RLuc 50% HS, HS/CCM (RPMI media, 10% FBS, 50% HS, 1% P/S), 72-h incubation.
Setting [3] is: Human immunodeficiency virus 1, 72 h, read-out: Antiviral Serum Shift RLuc CCM, CCM (RPMI media, 10% FBS, 1% P/S), 72-h incubation.
Where [4] appears, read: read-out: Antiviral Serum Shift RLuc 50% HS, HS/CCM (RPMI media, 10% FBS, 50% HS, 1% P/S), 72-h incubation.
Where [5] appears, read: read-out: Antiviral Serum Shift RLuc CCM, CCM (RPMI media, 10% FBS, 1% P/S), 72-h incubation.

Like-named read-outs stand apart in the source and are kept apart here. Where only a bound is given, the exact number is not on record here.

Turning to `O=C(NCc1ccc(F)cc1F)c1cn2c(c(O)c1=O)C(=O)N1CCc3ccccc3[C@@H]2C1` [Example 64-1, (13R)—N-(2,4-difluorobenzyl)-4-hydroxy-3,5-dioxo-3,5,8,13-tetrahydro-7H-6,13-methanobenzo[g]pyrido[1,2-a][1,4]diazonine-2-carboxamide], the EC50 in the series on pLai RLuc reporter virus (setting [2]) was 3.31 nM; in the series on pLai RLuc reporter virus (setting [3]) it was 0.319 nM. This molecule also came in with a CC50 in the series with uninfected MT-4 cells of 12300 nM. In addition, the CC50 at 5 days in series [1] came to 14800 nM.

For the molecule `O=C(NCc1ccc(F)cc1F)c1cn2c(c(O)c1=O)C(=O)N1C[C@H](F)CC[C@H]2C1` (single isomer, unassigned) [Example 53-4], the EC50 in the series with pLai RLuc reporter virus (setting [4]) was 18.3 nM; in the series with pLai RLuc reporter virus (setting [5]), 0.696 nM; in the series with HIV-1 (IIIB) (read-out: EC50) it was 4.72 nM. Further, the cytotoxic concentration (CC50) in the series on uninfected MT-4 cells was > 44400 nM.

`O=C(NCc1ccc(F)cc1F)c1cn2c(c(O)c1=O)C(=O)N1CC2CCc2cc(F)c(F)cc21` (single isomer, unassigned) [Example 50-1]: the EC50 with pLai RLuc reporter virus (setting [2]) stood at 0.948 nM; in the series with pLai RLuc reporter virus (setting [3]), 0.265 nM; in the series on HIV-1 (IIIB), 1.39 nM. Besides, the CC50 in the series with uninfected MT-4 cells was > 13500 nM.

On to `O=C(NCc1c(F)cc(F)cc1F)c1cn2c(c(O)c1=O)C(=O)N1C[C@@H]2CCC[C@@H]1CF` [Example 180, (3R,7S)-3-(fluoromethyl)-12-hydroxy-1,11-dioxo-N-(2,4,6-trifluorobenzyl)-1,4,5,6,7,11-hexahydro-3H-2,7-methanopyrido[1,2-a][1,4]diazonine-10-carboxamide], for which the EC50 with pLai RLuc reporter virus (setting [4]) worked out at 13.5 nM; in the series on pLai RLuc reporter virus (setting [5]), 0.32 nM; with HIV-1 (IIIB) (read-out: EC50), 1.21 nM. In the series with uninfected MT-4 cells, the midpoint of cytotoxicity, the CC50, lay at 10400 nM.

In the case of `O=C(NCc1c(F)cc(F)cc1F)c1cn2c(c(O)c1=O)C(=O)N1CCCC(CF)C2C1` (single isomer, unassigned) [Example 194-3, 6-(fluoromethyl)-12-hydroxy-1,11-dioxo-N-(2,4,6-trifluorobenzyl)-1,4,5,6,7,11-hexahydro-3H-2,7-methanopyrido[1,2-a][1,4]diazonine-10-carboxamide], the EC50 is 139 nM in the series with pLai RLuc reporter virus (setting [4]), 0.554 nM with pLai RLuc reporter virus (setting [5]) and 1.28 nM in the series on HIV-1 (IIIB) (read-out: EC50). In the series on uninfected MT-4 cells, this molecule yielded a 50% cytotoxic concentration (CC50) of 11500 nM.

The record behind these values is patent US12227520B2 (priority 2019, dated 2025).
